pIC50, pKi: −log10 of the molar value.
Assays:
[1] = test system: JAK1-dependent STAT6 phosphorylation downstream of IL-13 stimulation in BEAS-2B human bronchial epithelial cells; assay: JAK1 pathway assay in BEAS-2B cells (IL-13 stimulated STAT6 phosphorylation, MSD); format: cell-based; conditions: read-out: P-STAT6 BEAS2B + IL13 IC50
Summary of the method: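 BEAS-2B human bronchial epithelial cells, plated the day before in complete growth medium, were preincubated with compound for 1 hr at 37° C (0.2% DMSO final), then stimulated with IL-13 at its EC90 for 15 min. STAT6 phosphorylation in lysates was read by MSD; EC50 was taken as 50% inhibition versus DMSO control.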

[2] = biological target: T1, isolated recombinant JAK1 kinase domain (Homo sapiens, UniProt P23458); assay: JAK1 enzyme assay (Caliper LabChip, Ki); format: biochemical; conditions: recombinant JAK1 kinase domain, 25 μM ATP
T1 construct: The activity of the isolated recombinant JAK1 and JAK2 kinase domain was measured
Summary of the method: (§1)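 Caliper LabChip read-out: fraction of FAM-labeled JAK3-derived peptide converted to phosphopeptide by isolated JAK1/JAK2 kinase domain. Reaction 30 min, 22° C; stopped with EDTA, 50 mM final. Ki via Morrison tight-binding model, Ki=Ki,app/(1+[ATP]/Km,app).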

[3] = biological target: T2, isolated recombinant JAK2 kinase domain (Homo sapiens, UniProt O60674); assay: JAK2 enzyme assay (Caliper LabChip, Ki); format: biochemical; conditions: 25 μM ATP
T2 construct: The activity of the isolated recombinant JAK1 and JAK2 kinase domain was measured
Summary of the method: as §1

T2 sequence (O60674 849-1124 limits assumed): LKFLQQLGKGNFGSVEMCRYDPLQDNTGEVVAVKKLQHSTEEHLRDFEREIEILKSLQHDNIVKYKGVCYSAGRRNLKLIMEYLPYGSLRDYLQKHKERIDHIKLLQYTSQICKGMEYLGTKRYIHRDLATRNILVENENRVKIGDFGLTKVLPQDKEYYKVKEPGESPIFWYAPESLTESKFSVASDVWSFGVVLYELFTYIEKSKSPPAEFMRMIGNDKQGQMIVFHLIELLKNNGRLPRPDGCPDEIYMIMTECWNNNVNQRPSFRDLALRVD
T1 sequence (P23458 875-1153 limits assumed): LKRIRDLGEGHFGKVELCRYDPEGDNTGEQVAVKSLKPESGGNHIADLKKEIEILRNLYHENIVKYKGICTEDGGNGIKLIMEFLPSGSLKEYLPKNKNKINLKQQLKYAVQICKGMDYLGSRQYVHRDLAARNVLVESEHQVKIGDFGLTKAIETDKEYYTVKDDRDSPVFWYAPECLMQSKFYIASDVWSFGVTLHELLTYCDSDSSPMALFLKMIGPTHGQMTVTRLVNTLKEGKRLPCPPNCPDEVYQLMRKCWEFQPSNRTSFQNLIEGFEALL

pKi [2]	pKi [3]	Structure (SMILES)	pIC50 [1]
9.26	8.82	CN1CCN(C2CCN(C(=O)Cn3cc(NC(=O)c4cnn5cccnc45)c(-c4cc(SC5CC5)ccc4OC(F)F)n3)CC2)CC1 [Example 164, N-[3-[5-cyclopropylsulfanyl-2-(difluoromethoxy)phenyl]-1-[2-[4-(4-methylpiperazin-1-yl)-1-piperidyl]-2-oxo-ethyl]pyrazol-4-yl]pyrazolo[1,5-a]pyrimidine-3-carboxamide]	7.49
9.40	9.17	O=C(Nc1cn(CC(=O)N2CCN(CC3CCOCC3)CC2)nc1-c1cc(SC2CC2)ccc1OC(F)F)c1cnn2cccnc12 [Example 165, N-[3-[5-cyclopropylsulfanyl-2-(difluoromethoxy)phenyl]-1-[2-oxo-2-[4-(tetrahydropyran-4-ylmethyl)piperazin-1-yl]ethyl]pyrazol-4-yl]pyrazolo[1,5-a]pyrimidine-3-carboxamide]	7.70
9.54	9.14	N#CC1(CNC2CCN(C(=O)Cn3cc(NC(=O)c4cnn5cccnc45)c(-c4cc(SC5CC5)ccc4OC(F)F)n3)CC2)CC1 [Example 166, N-[1-[2-[4-[(1-cyanocyclopropyl)methylamino]-1-piperidyl]-2-oxo-ethyl]-3-[5-cyclopropylsulfanyl-2-(difluoromethoxy)phenyl]pyraxol-4-yl]pyrazolo[1,5-a]pyrimidine-3-carboxamide]	7.77
9.55	9.17	CC(C)(C#N)CNC1CCN(C(=O)Cn2cc(NC(=O)c3cnn4cccnc34)c(-c3cc(SC4CC4)ccc3OC(F)F)n2)CC1 [Example 167, N-[1-(2-[4-[(2-cyano-2,2-dimethylethyl)amino]piperidin-1-yl]-2-oxoethyl)-3-[5-(cyclopropylsulfanyl)-2-(difluoromethoxy)phenyl]-1H-pyrazol-4-yl]pyrazolo[1,5-a]pyrimidine-3-carboxamide]	7.96
9.54	9.34	O=C(Nc1cn(CC(=O)N2CCN(C3CCOCC3)CC2)nc1-c1cc(SC2CC2)ccc1OC(F)F)c1cnn2cccnc12 [Example 168, N-[3-[5-cyclopropylsulfanyl-2-(difluoromethoxy)phenyl]-1-[2-oxo-2-(4-tetrahydropyran-4-ylpiperazin-1-yl)ethyl]pyrazol-4-yl]pyrazolo[1,5-a]pyrimidine-3-carboxamide]	7.85
9.37	9.10	CC(F)(F)CNC1CCN(C(=O)Cn2cc(NC(=O)c3cnn4cccnc34)c(-c3cc(SC4CC4)ccc3OC(F)F)n2)CC1 [Example 169, N-[3-[5-cyclopropylsulfanyl-2-(difluoromethoxy)phenyl]-1-[2-[4-(2,2-difluoropropylamino)-1-piperidyl]-2-oxo-ethyl]pyrazol-4-yl]pyrazolo[1,5-a]pyrimidine-3-carboxamide]	7.70
9.41	9.11	CN(C)C(=O)CN1CCN(CC2CCN(C(=O)Cn3cc(NC(=O)c4cnn5cccnc45)c(-c4cc(SC5CC5)ccc4OC(F)F)n3)CC2)CC1 [Example 170, N-[3-[5-cyclopropylsulfanyl-2-(difluoromethoxy)phenyl]-1-[2-[4-[[4-[2-(dimethylamino)-2-oxo-ethyl]piperazin-1-yl]methyl]-1-piperidyl]-2-oxo-ethyl]pyrazol-4-yl]pyrazolo[1,5-a]pyrimidine-3-carboxamide]	7.60
9.37	9.11	CN(C1CCN(C(=O)Cn2cc(NC(=O)c3cnn4cccnc34)c(-c3cc(SC4CC4)ccc3OC(F)F)n2)CC1)C1COC1 [Example 171, N-[3-[5-cyclopropylsulfanyl-2-(difluoromethoxy)phenyl]-1-[2-[4-[methyl(oxetan-3-yl)amino]-1-piperidyl]-2-oxo-ethyl]pyrazol-4-yl]pyraxolo[1,5-a]pyrimidine-3-carboxamide]	7.66
9.35	9.04	CC(=O)N1CCN(CC2CCN(C(=O)Cn3cc(NC(=O)c4cnn5cccnc45)c(-c4cc(SC5CC5)ccc4OC(F)F)n3)CC2)CC1 [Example 172, N-[1-[2-[4-[(4-acetylpiperazin-1-yl)methyl]-1-piperidyl]-2-oxo-ethyl]-3-[5-cyclopropylsulfanyl-2-(difluoromethoxy)phenyl]pyrazol-4-yl]pyrazolo[1,5-a]pyrimidine-3-carboxamide]	7.49
9.48	9.08	COC(=O)N1CCN(CC2CCN(C(=O)Cn3cc(NC(=O)c4cnn5cccnc45)c(-c4cc(SC5CC5)ccc4OC(F)F)n3)CC2)CC1 [Example 173, methyl 4-[[1-[2-[3-[5-cyclopropylsulfanyl-2-(difluoromethoxy)phenyl]-4-(pyrazolo[1,5-a]pyrimidine-3-carbonylamino)pyrazol-1-yl]acetyl]-4-piperidyl]methyl]piperazine-1-carboxylate]	7.77
9.57	9.68	O=C(Nc1cn(Cc2cn(C3CCN(C4COC4)CC3)nn2)nc1-c1cc(SC2CC2)ccc1OC(F)F)c1cnn2cccnc12 [Example 174, N-[3-[5-cyclopropylsulfanyl-2-(difluoromethoxy)phenyl]-1-[[1-[1-(oxetan-3-yl)-4-piperidyl]triazol-4-yl]methyl]pyrazol-4-yl]pyrazolo[1,5-a]pyrimidine-3-carboxamide]	7.96
9.64	9.96	O=C(Nc1c[nH]nc1-c1cc(SC2COC2)ccc1OC(F)F)c1cnn2cccnc12 [Example 175, N-[3-[2-(difluoromethoxy)-5-(oxetan-3-ylsulfanyl)phenyl]-1H-pyrazol-4-yl]pyrazolo[1,5-a]pyrimidine-3-carboxamide]	8.02
9.42	8.85	CN1CCC[C@@H]1Cn1cc(NC(=O)c2cnn3cccnc23)c(-c2cc(SC3COC3)ccc2OC(F)F)n1 [Example 176, N-[3-[2-(difluoromethoxy)-5-(oxetan-3-ylsulfanyl)phenyl]-1-[[(2R)-1-methylpyrrolidin-2-yl]methyl]pyrazol-4-yl]pyrazolo[1,5-a]pyrimidine-3-carboxamide]	7.55
9.09	9.32	O=C(Nc1cn(CCN[C@@H]2CCOC2)nc1-c1cc(SC2COC2)ccc1OC(F)F)c1cnn2cccnc12 [Example 177, N-[3-[2-(difluoromethoxy)-5-(oxetan-3-ylsulfanyl)phenyl]-1-[2-[[(3R)-tetrahydrofuran-3-yl]amino]ethyl]pyrazol-4-yl]pyrazolo[1,5-a]pyrimidine-3-carboxamide]	7.74
9.44	9.19	CNCCn1cc(NC(=O)c2cnn3cccnc23)c(-c2cc(SC3COC3)ccc2OC(F)F)n1 [Example 178, N-[3-[2-(difluoromethoxy)-5-(oxetan-3-ylsulfanyl)phenyl]-1-[2-(methylamino)ethyl]pyrazol-4-yl]pyrazolo[1,5-a]pyrimidine-3-carboxamide]	8.05
9.13	9.23	O=C(Nc1cn(CCN[C@H]2C[C@H](O)C2)nc1-c1cc(SC2COC2)ccc1OC(F)F)c1cnn2cccnc12 [Example 179, N-[3-[2-(difluoromethoxy)-5-(oxetan-3-ylsulfanyl)phenyl]-1-(2-[[trans-3-hydroxycyclobutyl]amino]ethyl)-1H-pyrazol-4-yl]pyrazolo[1,5-a]pyrimidine-3-carboxamide]	7.59
9.00	9.12	O=C(Nc1cn(CCN[C@@H]2CCCOC2)nc1-c1cc(SC2COC2)ccc1OC(F)F)c1cnn2cccnc12 [Example 180, N-[3-[2-(difluoromethoxy)-5-(oxetan-3-ylsulfanyl)phenyl]-1-[2-[[(3R)-tetrahydropyran-3-yl]amino]ethyl]pyrazol-4-yl]pyrazolo[1,5-a]pyrimidine-3-carboxamide]	7.85
9.10	8.74	CCN1CCN(C(=O)Cn2cc(NC(=O)c3cnn4cccnc34)c(-c3cc(SC4COC4)ccc3OC(F)F)n2)CC1 [Example 181, N-[3-[2-(difluoromethoxy)-5-(oxetan-3-ylsulfanyl)phenyl]-1-[2-(4-ethylpiperazin-1-yl)-2-oxo-ethyl]pyrazol-4-yl]pyrazolo[1,5-a]pyrimidine-3-carboxamide]	7.08
9.04	8.72	O=C(Nc1cn(CC(=O)N2CCC(N3CCOCC3)CC2)nc1-c1cc(SC2COC2)ccc1OC(F)F)c1cnn2cccnc12 [Example 182, N-[3-[2-(difluoromethoxy)-5-(oxetan-3-ylsulfanyl)phenyl]-1-[2-(4-morpholino-1-piperidyl)-2-oxo-ethyl]pyrazol-4-yl]pyrazolo[1,5-a]pyrimidine-3-carboxamide]	7.04
9.19	8.82	O=C(Nc1cn(CC(=O)N2CCC(CN3CCOCC3)CC2)nc1-c1cc(SC2COC2)ccc1OC(F)F)c1cnn2cccnc12 [Example 183, N-[3-[2-(difluoromethoxy)-5-(oxetan-3-ylsulfanyl)phenyl]-1-[2-[4-(morpholinomethyl)-1-piperidyl]-2-oxo-ethyl]pyrazol-4-yl]pyrazolo[1,5-a]pyrimidine-3-carboxamide]	7.48
